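Test compounds were applied to cells in 96-well plates for 48 hours at 5 doses. GI50 marks 50% less growth. TGI is the concentration that stops growth completely.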
Tests used:
Assay in all cases: DTP human tumour cell line panel, 48 h
[1] = tested on: NCI-H226 lung
[2] = tested on: SK-MEL-5 melanoma
[3] = tested on: BT-549 breast
[4] = tested on: KM12 colon
[5] = tested on: UO-31 renal
[6] = tested on: EKVX NSCLC
[7] = tested on: U251 CNS
[8] = tested on: CCRF-CEM leukemia
[9] = tested on: OVCAR-4 ovarian
[10] = tested on: SK-MEL-28 melanoma

SMILES	TGI [1]	TGI [2]	TGI [3]	TGI [4]	TGI [5]	TGI [6]	TGI [7]	TGI [8]	TGI [9]	TGI [10]	GI50 [1]	GI50 [2]	GI50 [3]	GI50 [4]	GI50 [5]	GI50 [6]	GI50 [7]	GI50 [8]	GI50 [9]	GI50 [10]
Cc1ccc(S(=O)(=O)N2CCSCCSCCSCCSCC2)cc1	> 82.2 µM	> 86.9 µM	44 µM	> 100 µM	> 81.3 µM	> 89.9 µM	35.3 µM	> 100 µM	64.2 µM	> 100 µM										
O=C1c2ccccc2-c2c1c1ccccc1c(=O)n2CCCNCCCNCCCn1c2c(c3ccccc3c1=O)C(=O)c1ccccc1-2	0.903 µM	1.22 µM	2.08 µM	0.219 µM	0.215 µM	0.595 µM	0.122 µM	0.175 µM	1.02 µM	2.83 µM	< 0.014 µM	0.12 µM	0.665 µM	0.028 µM	0.0878 µM	0.25 µM	< 0.01 µM	< 0.01 µM	0.188 µM	1.17 µM
O=C(Cn1ccc(=O)[nH]c1=O)Nc1ccc(C(=O)O)c(O)c1	> 100 µM	> 100 µM	> 100 µM	> 100 µM	> 100 µM	> 100 µM	> 100 µM	> 100 µM	> 100 µM	> 100 µM										
Cc1ccc(/C=C2\CN(C(=O)OC(C)(C)C)C/C(=C\c3ccc(C)cc3)C2=O)cc1	> 100 µM		28.7 µM	> 100 µM	> 100 µM	> 100 µM	> 100 µM	> 100 µM	> 100 µM	> 100 µM			0.221 µM	0.149 µM	1.16 µM		0.489 µM	0.587 µM	3.04 µM	11.6 µM
COc1ccc(C(=O)/C=C/c2ccc(/C=C/c3cc(OC)c(OC)c(OC)c3)cc2)cc1	22.8 µM	19.2 µM	16.8 µM	83.9 µM	> 100 µM		54.7 µM	> 100 µM	47.3 µM	> 100 µM	3.57 µM	3.39 µM	3.36 µM	3.75 µM	4.64 µM		5.09 µM	4.15 µM	6.31 µM	16.9 µM
COc1ccc(-c2ccc(/C=N/n3c(COc4ccc(Cl)cc4Cl)n[nH]c3=S)o2)c([N+](=O)[O-])c1	11.9 µM		50.2 µM	33 µM	> 100 µM	> 100 µM	> 100 µM	42 µM	72.7 µM	62.5 µM	2.52 µM		21.9 µM	15.9 µM	43.9 µM	48.9 µM	22 µM	16.3 µM	28.9 µM	30.3 µM
O=C(CC(=O)CC(O)(C(F)(F)F)C(F)(F)F)CC(O)(C(F)(F)F)C(F)(F)F	> 10 µM	> 10 µM	> 10 µM	> 10 µM	> 10 µM	> 10 µM	> 10 µM	> 10 µM	> 10 µM	> 10 µM										
Cc1ccc2c(ccc3c[n+]4c5ccccc5ccc4n32)c1	10.4 µM	2.33 µM	2.41 µM	2.09 µM	54 µM	25.4 µM	2.12 µM	10.6 µM	4.64 µM	3.32 µM	2.43 µM	1.01 µM	0.434 µM	0.34 µM	5.42 µM	0.484 µM	0.361 µM	2.46 µM	1.32 µM	1.2 µM
CC(C)(C)C#CC1=C(Br)C(=O)OC1	68.1 µM	> 100 µM	19.7 µM	3.6 µM	3.22 µM	4.71 µM	> 36.5 µM	> 27.7 µM	19.6 µM	67 µM	23 µM	> 100 µM	4.89 µM	1.32 µM	0.9 µM	1.69 µM	0.997 µM	2.45 µM	1.85 µM	1.12 µM
CCN1C(=O)N(CC)C2C1NN=c1s/c(=C\c3cccnc3)c(=O)n12 (stereo unspecified)	> 100 µM	12.6 µM	19.9 µM	> 100 µM	> 100 µM	> 100 µM	> 100 µM	> 100 µM	> 100 µM	> 100 µM	1.1 µM	0.344 µM	1.04 µM	0.464 µM	1.53 µM	0.659 µM	0.612 µM	0.41 µM	5.72 µM	0.957 µM
O=C1OC(=O)C(c2c[nH]c3ccccc23)=C1c1c[nH]c2ccccc12	> 25 µM	> 25 µM	> 25 µM	> 25 µM	> 25 µM		> 25 µM	> 25 µM	> 25 µM	> 25 µM	> 25 µM	> 25 µM	> 25 µM	> 25 µM	8.73 µM		> 25 µM	> 25 µM	> 25 µM	> 25 µM
Nc1ccn(Cc2ccc(C34CC5CC(CC(C5)C3)C4)c(O)c2)c(=O)n1	> 100 µM	> 100 µM	> 100 µM	> 100 µM	> 100 µM	> 100 µM	> 100 µM		> 100 µM	> 100 µM	> 100 µM	82.4 µM	> 100 µM	> 100 µM	> 100 µM	93 µM	23.6 µM		> 100 µM	> 100 µM
COC(=O)[C@@H](C)C[C@H](Cc1ccccc1)NC(=O)c1nc([C@@H](C[C@H](C(C)C)N(C)C(=O)[C@@H](NC(=O)[C@H]2CCCCN2C)C(C)C)OC(C)=O)sc1C	> 16.7 µM	0.0565 µM	0.0568 µM	> 16.7 µM	> 16.7 µM	> 16.7 µM	> 16.7 µM	> 16.7 µM	> 16.7 µM		0.0275 µM	< 0.00167 µM	< 0.00167 µM	< 0.00167 µM	0.0118 µM	0.00666 µM	< 0.00167 µM	< 0.00167 µM	0.0179 µM	
